From patent US20210283099A1, “CDC7 KINASE INHIBITORS AND USES THEREOF” (SLOAN-KETTERING INSTITUTE FOR CANCER RESEARCH, priority 2010, published 2021)

Key:
Assay in all cases: Cytotoxicity assay (Alamar blue)
Format in all cases: cell-based
ALL3 = settings: Human Acute Lymphoblastic leukemia, Philadelphia chromosome positive
Experimental: (§1) FIGS. 16A-16B. Granaticin A and Granaticin B inhibit multiple tumor types: The indicated cell lines and primary patient samples were tested against the compounds listed in standard cytotoxicity assays (12 point dose response using Alamar blue reduction as an indicator of cell viability). Assays were done in triplicate and IC50 determinations were run in 12-point serial dilutions from […] to 5 nM. […] These include ras and EGFR gatekeeper mutation containing cell lines in addition to p53 mutant cell lines and other known chemotherapy resistant cell lines. Specifically, this included multi-drug resistance phenotype (MDR-overexpressing) cell lines from multiple hematologic and solid tumor cell lines. Table 1 highlights a series of primary patient leukemia samples-both acute and chronic and treatment naïve and refractory tested against granaticins A and B and Derivatives 1 and 2 (see Examples).

JAMC = settings: Homo sapiens, Patient sample of AML with inversion of chromosome 16
Experimental: as §1

FUUR1 = settings: human renal cell carcinoma with the reciprocal ASPL-TFE3 fusion transcript
Experimental: as §1

JEKO = settings: Human Mantle Cell Lymphoma
Experimental: as §1

JUCO = settings: Homo sapiens, Patient sample of pre-B cell ALL with t(4;11) involving the MLL gene
Experimental: as §1

KASUMI4 = settings: Kasumi-4, Human CML transformed to acute myeloid leukemia, overexpression of EVI1
Experimental: as §1

H1975 = settings: NCI-H1975, Human lung adenocarcinoma, T790M/L858R EGFR mutation, R273H p53 mutation, PTEN null, wild-type KRAS
Experimental: as §1

PC9 = settings: PC-9, Human lung adenocarcinoma, DelE746-A750 EGFR mutation
Experimental: as §1

CWR22 = settings: human prostate carcinoma
Experimental: as §1

Y79 = settings: Human retinoblastoma
Experimental: as §1

STGL = settings: Homo sapiens, Patient sample of refractory AML with multiple chromosomal abnormalities (refractory to allogeneic BMT)
Experimental: as §1

H3255 = settings: NCI-H3255, Human lung adenocarcinoma, L858R EGFR mutation, wild-type KRAS, wild-type P53
Experimental: as §1

132 = settings: Homo sapiens, Patient sample of Chronic Lymphocytic Leukemia
Experimental: as §1

MCF-7 = settings: MCF7, human invasive breast ductal carcinoma, estrogen and progesterone receptor positive
Experimental: as §1

JURKAT E61 = settings: Jurkat E6.1, Human Acute Lymphoblastic T-cell leukemia
Experimental: as §1

JOBL = settings: Homo sapiens, Patient sample of relapsed/refractory acute myelogenous leukemia
Experimental: as §1

JOQU = settings: Homo sapiens, Patient sample of relapsed/refractory AML with trisomy of chromosome #8 and Flt-3 ITD
Experimental: as §1

MCF-10A = settings: human normal mammary epithelium
Experimental: as §1

K562 = settings: Human Chronic Myelogenous leukemia transformed to acute erythroleukemia
Experimental: as §1

H23 = settings: NCI-H23, Human lung adenocarcinoma, G12c KRAS mutation, M246I P53 mutation
Experimental: as §1

SKMEL28 = settings: SK-MEL-28, Human melanoma
Experimental: as §1

HELA N10 = settings: human cervical adenocarcinoma (positive for human papillomavirus infection)
Experimental: as §1

MOLT3 = settings: MOLT-3, Human Acute Lympholastic T-cell Leukemia
Experimental: as §1

H460 = settings: NCI-H460, human large cell lung carcinoma, Q61H KRAS mutation
Experimental: as §1

JNDSRCT1 = settings: Human desmoplastic small round cell tumor cell line
Experimental: as §1

JOHO = settings: Homo sapiens, Patient sample of primary refractory AML with inv3 and monosomy 7 (refractory to allogeneic BMT)
Experimental: as §1

HL60 MX1 = settings: Homo sapiens, MDR variant of HL60 selected with mitoxantrone-clone 1
Experimental: as §1

BE(2)C = settings: human neuroblastoma, p53 mutant
Experimental: as §1

MEG01 = settings: MEG-01, Human CML transformed to acute Megakaryoblastic leukemia
Experimental: as §1

JABR = settings: Homo sapiens, Patient sample of relpased/refractory AML with normal cytogenetics and Flt-3 ITD
Experimental: as §1

SKOV3 = settings: SK-OV-3, Human adenocarcinoma from the ovary derived from ascites, hypodiploid
Experimental: as §1

ALBU = settings: Homo sapiens, Patient sample of essential thrombocythemia transformed to refractory acute myelogenous leukemia
Experimental: as §1

RB355 = settings: Human retinoblastoma
Experimental: as §1

RADO = settings: Homo sapiens, Patient sample of primary refractory AML with multiple chromosomal abnormalities (−5, −7)
Experimental: as §1

Structure (SMILES)	IC50 (ALL3) [nM]	IC50 (JAMC) [nM]	IC50 (FUUR1) [nM]	IC50 (JEKO) [nM]	IC50 (JUCO) [nM]	IC50 (KASUMI4) [nM]	IC50 (H1975) [nM]	IC50 (PC9) [nM]	IC50 (CWR22) [nM]	IC50 (Y79) [nM]	IC50 (STGL) [nM]	IC50 (H3255) [nM]	IC50 132 [nM]	IC50 (MCF-7) [nM]	IC50 (JURKAT E61) [nM]	IC50 (JOBL) [nM]	IC50 (JOQU) [nM]	IC50 (MCF-10A) [nM]	IC50 (K562) [nM]	IC50 (H23) [nM]	further results
CC1OC2CC(O)C1(O)c1c(O)c3c(c(O)c12)C(=O)C1=C(C3=O)[C@H](C)O[C@H]2CC(=O)O[C@@H]12 (some centres unmarked) [Granaticin A, granaticin A]	140	60	480	40	80	300	120	300	90	60	1880	210	130	170	50	560	770	260	120	120	IC50 (SKMEL28): 540 nM; IC50 (HELA N10): 1270 nM; IC50 (MOLT3): 30 nM; IC50 (H460): 390 nM; IC50 (JNDSRCT1): 70 nM; IC50 (JOHO): 880 nM; IC50 (HL60 MX1): 170 nM; IC50 (BE(2)C): 70 nM; IC50 (MEG01): 170 nM; IC50 (JABR): 210 nM; IC50 (SKOV3): 120 nM; IC50 (ALBU): 430 nM; IC50 (RB355): 90 nM; IC50 (RADO): 60 nM
CC1OC2CC(O[C@H]3CC[C@H](O)[C@H](C)O3)C1(O)c1c(O)c3c(c(O)c12)C(=O)C1=C(C3=O)[C@H](C)O[C@H]2CC(=O)O[C@@H]12 (some centres unmarked) [Granaticin B, granaticin B]	30	40	340	20	10	180	30	70	40	50	620	70	10	130	20	190	140	240	80	50	IC50 (SKMEL28): 340 nM; IC50 (HELA N10): 970 nM; IC50 (MOLT3): 10 nM; IC50 (H460): 80 nM; IC50 (JNDSRCT1): 50 nM; IC50 (JOHO): 170 nM; IC50 (HL60 MX1): 80 nM; IC50 (BE(2)C): 40 nM; IC50 (MEG01): 80 nM; IC50 (JABR): 50 nM; IC50 (SKOV3): 40 nM; IC50 (ALBU): 30 nM; IC50 (RB355): 40 nM; IC50 (RADO): 30 nM
